{
  "source": "patent US20030176442A1",
  "about": "“Treatment of diabetic ulcers” (priority 2000, published 2003)",
  "test_system": "diabetic foot ulcer",
  "experiment": "anecdotal report: insulin-dependent diabetic patient with diabetic foot ulcer treated with sildenafil",
  "type": "in vivo, human",
  "details": "one patient",
  "text": "The efficacy of the cGMP PDE5 inhibitors in treating neuropathy in human patients is illustrated by the following anecdotal report. The patient was an insulin-dependent diabetic who had been suffering from erectile dysfunction and who subsequently developed a diabetic foot ulcer. During treatment of their erectile dysfunction with sildenafil it was noted that their foot ulcer, which they had had for approximately two years, was healing. The patient had been through various courses of treatment with minimal results. They had seen vascular surgeons, podiatrists and had visited wound care clinics. Ultimately, they were hopitalised for approximately one month on IV antibiotics etc, and the threat was very real that the patient was going to require a below-the-knee amputation. At times the ulcer would appear to be healing only to re-occur, returning to its pre-treatment size and depth. […] The patient was instructed to continue taking 50 mg of Sildenafil once a day.",
  "data": [
    {"smiles": "CCCc1nn(C)c2c(=O)[nH]c(-c3cc(S(=O)(=O)N4CCN(C)CC4)ccc3OCC)nc12", "note": "[Sildenafil, 5-[2-ethoxy-5-(4-methylpiperazin-1-ylsulphonyl)-phenyl]-1,6-dihydro-1-methyl-3-propylpyrazolo [4,3-d]pyrimidine-7-one]", "values": [
      {"measurement": "outcome of the diabetic foot ulcer", "setting": "ulcer present approximately two years, 50 mg of Sildenafil once a day", "result": "complete resolution of the diabetic foot ulcer within one month"},
      {"measurement": "ulcer size after start of treatment", "setting": "Sildenafil treatment begun for erectile dysfunction", "result": "decreasing in size"},
      {"measurement": "re-occurrence of ulcer on continued treatment", "setting": "same treatment (50 mg once a day) continued for the past two years", "result": "without re-occurrence"}
    ]}
  ]
}
